Molecular target: T1, Nuclear factor NF-kappa-B p105 subunit (Homo sapiens, UniProt P19838)
T1 sequence (P19838 whole entry): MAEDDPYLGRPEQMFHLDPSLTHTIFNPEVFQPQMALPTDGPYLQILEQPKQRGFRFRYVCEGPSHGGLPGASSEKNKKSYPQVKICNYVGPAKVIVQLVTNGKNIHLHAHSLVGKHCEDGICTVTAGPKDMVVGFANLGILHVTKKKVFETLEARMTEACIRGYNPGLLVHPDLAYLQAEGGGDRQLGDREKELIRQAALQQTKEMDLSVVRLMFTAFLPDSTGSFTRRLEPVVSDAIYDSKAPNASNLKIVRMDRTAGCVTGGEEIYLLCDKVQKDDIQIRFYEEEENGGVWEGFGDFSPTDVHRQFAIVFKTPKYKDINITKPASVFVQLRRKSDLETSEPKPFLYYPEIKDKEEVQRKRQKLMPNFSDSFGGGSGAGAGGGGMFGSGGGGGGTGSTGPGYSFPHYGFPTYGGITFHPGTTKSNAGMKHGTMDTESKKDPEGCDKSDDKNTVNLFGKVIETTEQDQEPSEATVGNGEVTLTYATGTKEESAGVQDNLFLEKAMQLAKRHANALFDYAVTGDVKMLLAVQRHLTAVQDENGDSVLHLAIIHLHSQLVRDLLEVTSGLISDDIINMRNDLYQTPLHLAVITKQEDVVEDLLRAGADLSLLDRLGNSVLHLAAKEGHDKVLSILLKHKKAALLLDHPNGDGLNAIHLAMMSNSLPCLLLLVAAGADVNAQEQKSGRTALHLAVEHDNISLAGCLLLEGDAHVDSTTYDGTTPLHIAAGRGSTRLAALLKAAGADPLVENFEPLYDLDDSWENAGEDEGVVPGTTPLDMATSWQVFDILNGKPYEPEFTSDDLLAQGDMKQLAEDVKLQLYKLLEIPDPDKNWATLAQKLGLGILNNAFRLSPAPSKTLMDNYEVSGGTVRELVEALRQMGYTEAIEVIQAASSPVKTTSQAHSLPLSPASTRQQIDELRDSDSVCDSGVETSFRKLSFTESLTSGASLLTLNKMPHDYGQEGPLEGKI
Test: Inhibition of GST-fused human NF-kappaB p50 subunit DNA binding activity assessed as shortened diffusion time by fluorescence correlation spectroscopy

SMILES | IC50 [µM]
Clc1nc(Cl)nc(Nc2ccccc2)n1 | 28.6
O=[N+]([O-])c1cccc(Nc2nc(Cl)nc(Cl)n2)c1 | 119
Clc1ccc(Nc2nc(Cl)nc(Cl)n2)cc1 | 110
O=[N+]([O-])c1ccc(Nc2nc(Cl)nc(Cl)n2)cc1 | > 300
Cc1cccc(Nc2nc(Cl)nc(Cl)n2)c1 | 19
CC(C)c1ccc(Nc2nc(Cl)nc(Cl)n2)cc1 | 74.4
